Source: ChEMBL document CHEMBL2311250 (Bioorg Med Chem Lett, 2013)
Converted amounts (≈) assume the structure as drawn.

Assays:
[1] = biological target: Myosin light chain kinase 2, skeletal/cardiac muscle (Homo sapiens, UniProt Q9H1R3); experiment: Inhibition of MYLK2 (unknown origin) in presence of ATP
[2] = Permeability of the compound by PAMPA; assay type: ADME; settings: read-out: permeability
[3] = biological target: MAP kinase-activated protein kinase 2 (Homo sapiens, UniProt P49137); experiment: Inhibition of MAPKAP-K2 (unknown origin) in presence of ATP
[4] = Aqueous solubility of the compound at ph 6.5; assay type: physicochemical
[5] = biological target: Tyrosine-protein kinase Lck (Homo sapiens, UniProt P06239); experiment: Inhibition of LCK (unknown origin) in presence of ATP
[6] = biological target: Mitogen-activated protein kinase kinase kinase 9 (Homo sapiens, UniProt P80192); experiment: Inhibition of MAP3K9 (unknown origin) in presence of ATP
[7] = biological target: Tyrosine-protein kinase ABL1 (Homo sapiens, UniProt P00519); experiment: Inhibition of ABL (unknown origin) in presence of ATP
[8] = biological target: Serine/threonine-protein kinase Chk1 (Homo sapiens, UniProt O14757); experiment: Inhibition of CHK1 (unknown origin) in presence of ATP
Serine/threonine-protein kinase Chk1, sequence (O14757 whole entry): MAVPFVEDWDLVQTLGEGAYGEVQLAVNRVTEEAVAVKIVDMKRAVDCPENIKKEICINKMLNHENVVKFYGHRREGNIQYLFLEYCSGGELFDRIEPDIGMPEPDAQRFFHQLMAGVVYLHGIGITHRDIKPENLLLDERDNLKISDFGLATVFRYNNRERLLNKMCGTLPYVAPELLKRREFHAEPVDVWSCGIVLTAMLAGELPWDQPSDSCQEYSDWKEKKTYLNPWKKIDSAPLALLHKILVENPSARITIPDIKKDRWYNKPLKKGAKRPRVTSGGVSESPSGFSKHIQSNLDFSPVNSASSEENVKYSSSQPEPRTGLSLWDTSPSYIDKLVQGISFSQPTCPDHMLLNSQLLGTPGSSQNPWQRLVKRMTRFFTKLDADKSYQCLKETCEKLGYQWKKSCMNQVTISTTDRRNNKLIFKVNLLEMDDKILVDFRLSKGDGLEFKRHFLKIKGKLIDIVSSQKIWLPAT

hERG (KCNH2) = hERG (KCNH2) (Homo sapiens, UniProt Q12809); experiment: Displacement of [3H]dofetilide from human ERG at 10 uM; settings: probe [3H]dofetilide
[9] = biological target: Mitogen-activated protein kinase 1 (Homo sapiens, UniProt P28482); experiment: Inhibition of MAPK1/ERK2 (unknown origin) in presence of ATP
[10] = biological target: Serine/threonine-protein kinase Nek2 (Homo sapiens, UniProt P51955); experiment: Inhibition of NEK2 (unknown origin) in presence of ATP
[11] = biological target: Serine/threonine-protein kinase MARK1 (Homo sapiens, UniProt Q9P0L2); experiment: Inhibition of MARK1 (unknown origin) in presence of ATP
[12] = biological target: Fibroblast growth factor receptor 1 (Homo sapiens, UniProt P11362); experiment: Inhibition of FGFR1 (unknown origin) in presence of ATP
Ephrin type-A receptor 2 = Ephrin type-A receptor 2 (Homo sapiens, UniProt P29317); experiment: Inhibition of ECK (unknown origin) in presence of ATP
Aurora kinase A = Aurora kinase A (Homo sapiens, UniProt O14965); experiment: Inhibition of Aurora-A (unknown origin) in presence of ATP
[13] = biological target: Casein kinase I isoform delta (Homo sapiens, UniProt P48730); experiment: Inhibition of CK1-delta (unknown origin) in presence of ATP
Casein kinase I isoform delta, sequence (P48730 whole entry, canonical isoform): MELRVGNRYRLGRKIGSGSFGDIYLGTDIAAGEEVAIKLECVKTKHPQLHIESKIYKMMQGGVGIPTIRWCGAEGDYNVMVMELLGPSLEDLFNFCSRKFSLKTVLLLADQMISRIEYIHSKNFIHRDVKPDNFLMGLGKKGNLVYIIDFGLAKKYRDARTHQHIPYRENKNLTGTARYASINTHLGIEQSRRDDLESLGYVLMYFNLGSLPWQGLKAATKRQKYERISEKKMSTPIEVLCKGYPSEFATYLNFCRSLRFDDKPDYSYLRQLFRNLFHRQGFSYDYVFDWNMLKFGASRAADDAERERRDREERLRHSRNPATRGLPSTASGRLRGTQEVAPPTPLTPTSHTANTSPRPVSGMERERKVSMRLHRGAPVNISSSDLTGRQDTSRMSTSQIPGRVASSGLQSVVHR

[14] = biological target: Serine/threonine-protein kinase Chk2 (Homo sapiens, UniProt O96017); experiment: Inhibition of CHK2 (unknown origin) in presence of ATP
CDK6/cyclin D3 = CDK6/cyclin D3 (Homo sapiens, UniProt Q00534); experiment: Inhibition of CDK6/cyclin D3 (unknown origin) in presence of ATP; assay type: protein-complex assay
[15] = Half life in rat liver microsomes; assay type: ADME, Microsome
CYP2D6 = CYP2D6 (Homo sapiens, UniProt P10635); experiment: Inhibition of CYP2D6 (unknown origin) at 3 uM; assay type: ADME
CYP2D6, sequence (P10635 whole entry): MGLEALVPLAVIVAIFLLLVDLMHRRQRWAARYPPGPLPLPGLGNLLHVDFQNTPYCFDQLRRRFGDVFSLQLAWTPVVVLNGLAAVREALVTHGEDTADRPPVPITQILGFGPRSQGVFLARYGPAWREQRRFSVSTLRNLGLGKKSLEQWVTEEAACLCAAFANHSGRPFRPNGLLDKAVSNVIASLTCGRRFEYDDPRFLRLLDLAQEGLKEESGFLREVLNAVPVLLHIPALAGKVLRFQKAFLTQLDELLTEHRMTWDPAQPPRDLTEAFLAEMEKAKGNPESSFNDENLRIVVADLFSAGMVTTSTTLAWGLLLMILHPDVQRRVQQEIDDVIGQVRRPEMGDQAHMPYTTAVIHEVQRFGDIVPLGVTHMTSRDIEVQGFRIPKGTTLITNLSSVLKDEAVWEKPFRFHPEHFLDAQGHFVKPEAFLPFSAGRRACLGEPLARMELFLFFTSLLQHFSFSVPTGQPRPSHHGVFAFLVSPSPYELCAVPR

[16] = biological target: Serine/threonine-protein kinase 26 (Homo sapiens, UniProt Q9P289); experiment: Inhibition of MASK (unknown origin) in presence of ATP
Serine/threonine-protein kinase 26, sequence (Q9P289 whole entry): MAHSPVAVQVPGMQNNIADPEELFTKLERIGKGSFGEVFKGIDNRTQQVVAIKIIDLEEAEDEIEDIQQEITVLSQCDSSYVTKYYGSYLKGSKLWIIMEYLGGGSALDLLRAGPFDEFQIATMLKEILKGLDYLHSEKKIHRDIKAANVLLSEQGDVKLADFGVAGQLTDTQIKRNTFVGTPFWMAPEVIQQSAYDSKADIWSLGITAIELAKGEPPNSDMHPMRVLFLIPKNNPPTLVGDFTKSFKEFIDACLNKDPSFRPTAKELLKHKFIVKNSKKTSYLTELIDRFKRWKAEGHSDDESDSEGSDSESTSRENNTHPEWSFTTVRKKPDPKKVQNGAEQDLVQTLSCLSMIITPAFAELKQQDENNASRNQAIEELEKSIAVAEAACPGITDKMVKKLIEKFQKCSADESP

Casein kinase II = Casein kinase II (Homo sapiens, UniProt P19784+P67870+P68400); experiment: Inhibition of CK2 (unknown origin) in presence of ATP; assay type: protein-complex assay
[17] = biological target: Glycogen synthase kinase-3 beta (Homo sapiens, UniProt P49841); experiment: Inhibition of GSK3-beta (unknown origin) in presence of ATP
[18] = biological target: Inhibitor of nuclear factor kappa-B kinase subunit epsilon (Homo sapiens, UniProt Q14164); experiment: Inhibition of IKKi (unknown origin) in presence of ATP
Inhibitor of nuclear factor kappa-B kinase subunit epsilon, sequence (Q14164 whole entry): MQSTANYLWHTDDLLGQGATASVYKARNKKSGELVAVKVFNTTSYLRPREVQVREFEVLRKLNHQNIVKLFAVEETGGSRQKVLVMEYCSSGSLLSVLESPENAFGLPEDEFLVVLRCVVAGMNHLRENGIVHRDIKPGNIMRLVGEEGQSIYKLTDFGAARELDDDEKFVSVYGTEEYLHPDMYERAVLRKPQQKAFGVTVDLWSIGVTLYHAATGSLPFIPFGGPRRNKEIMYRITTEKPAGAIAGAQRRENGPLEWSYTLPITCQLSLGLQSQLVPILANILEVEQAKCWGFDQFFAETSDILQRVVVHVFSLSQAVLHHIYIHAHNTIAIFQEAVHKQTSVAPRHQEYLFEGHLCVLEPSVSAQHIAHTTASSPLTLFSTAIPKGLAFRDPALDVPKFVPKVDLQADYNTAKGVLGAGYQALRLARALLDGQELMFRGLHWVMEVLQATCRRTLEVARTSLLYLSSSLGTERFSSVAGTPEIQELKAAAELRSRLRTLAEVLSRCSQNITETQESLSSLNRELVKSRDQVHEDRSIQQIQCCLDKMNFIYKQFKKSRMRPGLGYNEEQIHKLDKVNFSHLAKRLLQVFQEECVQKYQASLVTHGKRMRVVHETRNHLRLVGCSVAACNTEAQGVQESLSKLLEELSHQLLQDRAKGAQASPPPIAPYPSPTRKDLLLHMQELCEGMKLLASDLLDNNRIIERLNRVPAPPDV

[19] = Half life in human liver microsomes; assay type: ADME, Microsome
[20] = biological target: Tyrosine-protein kinase BTK (Homo sapiens, UniProt Q06187); experiment: Inhibition of BTK (unknown origin) in presence of ATP
[21] = biological target: Serine/threonine-protein kinase 3 (Homo sapiens, UniProt Q13188); experiment: Inhibition of MST2 (unknown origin) in presence of ATP
[22] = biological target: Tyrosine-protein kinase JAK3 (Homo sapiens, UniProt P52333); experiment: Inhibition of JAK3 (unknown origin) in presence of ATP
Tyrosine-protein kinase JAK3, sequence (P52333 whole entry): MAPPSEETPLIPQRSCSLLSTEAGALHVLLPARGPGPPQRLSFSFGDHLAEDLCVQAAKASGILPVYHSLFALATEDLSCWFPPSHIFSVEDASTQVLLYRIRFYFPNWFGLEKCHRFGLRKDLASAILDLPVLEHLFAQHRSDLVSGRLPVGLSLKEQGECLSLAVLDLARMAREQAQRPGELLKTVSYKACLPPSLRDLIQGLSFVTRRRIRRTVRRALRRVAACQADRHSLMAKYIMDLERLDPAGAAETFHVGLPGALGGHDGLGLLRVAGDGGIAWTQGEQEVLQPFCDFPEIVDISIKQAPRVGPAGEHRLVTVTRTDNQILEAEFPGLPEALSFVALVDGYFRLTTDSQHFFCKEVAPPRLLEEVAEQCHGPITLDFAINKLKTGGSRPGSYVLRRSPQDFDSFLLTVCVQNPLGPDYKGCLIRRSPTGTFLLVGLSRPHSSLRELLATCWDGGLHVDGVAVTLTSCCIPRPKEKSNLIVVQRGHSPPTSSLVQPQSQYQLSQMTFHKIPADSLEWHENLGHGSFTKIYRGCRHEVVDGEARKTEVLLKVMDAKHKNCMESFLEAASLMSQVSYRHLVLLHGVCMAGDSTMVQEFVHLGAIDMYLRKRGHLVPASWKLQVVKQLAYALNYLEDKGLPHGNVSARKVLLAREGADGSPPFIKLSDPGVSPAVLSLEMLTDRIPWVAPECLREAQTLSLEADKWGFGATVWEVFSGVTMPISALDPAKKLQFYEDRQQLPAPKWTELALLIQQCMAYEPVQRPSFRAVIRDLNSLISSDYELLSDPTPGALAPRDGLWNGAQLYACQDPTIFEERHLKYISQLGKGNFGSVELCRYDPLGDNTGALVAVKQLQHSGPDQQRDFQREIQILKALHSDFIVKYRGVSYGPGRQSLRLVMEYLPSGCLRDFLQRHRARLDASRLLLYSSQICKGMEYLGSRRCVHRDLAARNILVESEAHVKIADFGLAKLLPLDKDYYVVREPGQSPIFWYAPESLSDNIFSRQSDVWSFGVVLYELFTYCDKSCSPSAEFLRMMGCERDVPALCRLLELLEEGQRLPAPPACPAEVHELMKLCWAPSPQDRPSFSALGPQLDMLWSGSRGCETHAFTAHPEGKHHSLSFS

[23] = biological target: Inhibitor of nuclear factor kappa-B kinase subunit beta (Homo sapiens, UniProt O14920); experiment: Inhibition of IKK-beta (unknown origin) in presence of ATP
Inhibitor of nuclear factor kappa-B kinase subunit beta, sequence (O14920 whole entry): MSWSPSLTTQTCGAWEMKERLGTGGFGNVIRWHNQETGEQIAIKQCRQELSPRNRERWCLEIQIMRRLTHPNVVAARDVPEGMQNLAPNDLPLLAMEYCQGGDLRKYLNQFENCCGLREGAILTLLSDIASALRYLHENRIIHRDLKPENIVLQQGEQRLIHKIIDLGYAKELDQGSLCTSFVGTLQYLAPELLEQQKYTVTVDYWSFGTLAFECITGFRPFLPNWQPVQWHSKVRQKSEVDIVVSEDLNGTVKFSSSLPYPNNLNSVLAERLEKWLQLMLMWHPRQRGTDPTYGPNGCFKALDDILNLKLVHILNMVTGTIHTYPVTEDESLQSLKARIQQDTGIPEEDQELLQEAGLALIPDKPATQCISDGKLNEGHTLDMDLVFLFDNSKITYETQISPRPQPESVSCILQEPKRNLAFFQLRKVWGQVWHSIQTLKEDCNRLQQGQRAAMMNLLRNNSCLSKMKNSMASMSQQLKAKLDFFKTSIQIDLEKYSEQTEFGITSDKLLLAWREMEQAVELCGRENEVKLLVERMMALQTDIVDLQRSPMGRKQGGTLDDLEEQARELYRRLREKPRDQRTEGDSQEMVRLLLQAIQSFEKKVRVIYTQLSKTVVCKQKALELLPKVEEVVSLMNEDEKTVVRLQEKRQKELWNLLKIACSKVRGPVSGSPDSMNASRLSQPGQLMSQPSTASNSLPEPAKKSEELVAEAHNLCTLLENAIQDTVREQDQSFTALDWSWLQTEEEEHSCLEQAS

[24] = biological target: Dual specificity protein kinase CLK1 (Homo sapiens, UniProt P49759); experiment: Inhibition of CLK1 (unknown origin) in presence of ATP
[25] = biological target: Cyclin-dependent kinase 2/cyclin A (Homo sapiens, UniProt P24941); experiment: Inhibition of CDK2/cyclin A (unknown origin) in presence of ATP; assay type: protein-complex assay
[26] = biological target: RAC-alpha serine/threonine-protein kinase (Homo sapiens, UniProt P31749); experiment: Inhibition of AKT1 (unknown origin) in presence of ATP
[27] = biological target: Calcium/calmodulin-dependent protein kinase type 1 (Homo sapiens, UniProt Q14012); experiment: Inhibition of CAMK1 (unknown origin) in presence of ATP

Myosin light chain kinase 2, skeletal/cardiac muscle, sequence (Q9H1R3 whole entry): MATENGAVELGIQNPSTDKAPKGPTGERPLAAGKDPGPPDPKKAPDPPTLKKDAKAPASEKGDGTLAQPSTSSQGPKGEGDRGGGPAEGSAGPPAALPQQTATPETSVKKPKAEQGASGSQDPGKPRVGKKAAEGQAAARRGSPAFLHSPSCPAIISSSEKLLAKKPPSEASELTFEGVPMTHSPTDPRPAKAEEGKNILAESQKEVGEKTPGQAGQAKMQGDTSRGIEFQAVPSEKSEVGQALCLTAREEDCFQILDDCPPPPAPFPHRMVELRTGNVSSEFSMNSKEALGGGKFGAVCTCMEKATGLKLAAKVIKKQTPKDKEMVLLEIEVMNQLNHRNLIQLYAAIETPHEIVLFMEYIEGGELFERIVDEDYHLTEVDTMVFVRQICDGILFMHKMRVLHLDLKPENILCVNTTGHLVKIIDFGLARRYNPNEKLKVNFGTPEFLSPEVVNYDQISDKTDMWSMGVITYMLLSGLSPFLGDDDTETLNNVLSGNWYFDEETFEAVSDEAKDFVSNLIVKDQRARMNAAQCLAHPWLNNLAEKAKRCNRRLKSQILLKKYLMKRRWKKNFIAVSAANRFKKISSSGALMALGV

IC50 [1]: 4860 nM
Papp [2]: 0.03 ×10⁻⁶ cm/s
IC50 [3]: 18600 nM
solubility [4]: 2.3 µM (≈ 1.06 µg/mL)
IC50 [5]: 220 nM
IC50 [6]: 160 nM
IC50 [7]: 810 nM
IC50 [8]: 1370 nM
IC50 [9]: 30000 nM
IC50 [10]: 2510 nM
IC50 [11]: 1490 nM
IC50 [12]: 1710 nM
IC50 (Ephrin type-A receptor 2): 2430 nM
IC50 (Aurora kinase A): 1550 nM
IC50 [13]: 110 nM
IC50 [14]: 7970 nM
IC50 (CDK6/cyclin D3): 30000 nM
half-life [15]: 6 min
inhibition at 3 µM (CYP2D6): 69%
IC50 [16]: 3840 nM
IC50 (Casein kinase II): 7560 nM
IC50 [17]: 7740 nM
IC50 [18]: 30000 nM
half-life [19]: 28 min
IC50 [20]: 950 nM
IC50 [21]: 470 nM
IC50 [22]: 5300 nM
IC50 [23]: 30000 nM
IC50 [24]: 1630 nM
IC50 [25]: 1150 nM
IC50 [26]: 3100 nM
IC50 [27]: 3880 nM
Structure (SMILES): Cc1cc(-c2cnc(Nc3cc(Cl)cc(Cl)c3)nc2NC2CCC(N(C)C)CC2)on1 (stereo not drawn)
inhibition at 10 µM (hERG (KCNH2)): 0.35%
